Converted amounts (≈) assume the structure as drawn.
Experiments:
[1] = tested on: M. tuberculosis inside the host macrophage; assay: QIM: Quantification of Intracellular Mycobacteria (intracellular growth assay, phenotypic cell-based); conditions: Mycobacterium tuberculosis; MIC, 80% bacterial growth inhibition; intracellular growth; read-out: QIM
Procedure, shortened: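 Phenotypic high-content assay measuring M. tuberculosis multiplication inside host macrophages, run as dose response. MIC is the minimum compound concentration giving 80% bacterial growth inhibition.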

[2] = tested on: in vitro grown Mycobacteria (M. tuberculosis); assay: QUM: Quantification of in vitro grown Mycobacteria (in vitro growth fluorescence assay); format: cell-based; conditions: Mycobacterium tuberculosis; MIC, 80% bacterial growth inhibition; in vitro growth; read-out: QUM
Procedure, shortened: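 Mycobacterium tuberculosis grown in vitro was quantified by fluorescence across compound dose responses. MIC is defined as the minimum concentration producing 80% growth inhibition.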

Row | Compound | MIC [1] [µM] | MIC [2] [µM] | melting point [°C]
1 | CCc1nc2ccc(Cl)cn2c1C(=O)N(C)Cc1ccc(N2CCN(c3ccc(F)cc3)CC2)cc1 [Compound 182, 6-Chloro-2-ethyl-N-(4-(4-(4-fluorophenyl)piperazin-1-yl)benzyl)-N-methylimidazo[1,2-a]pyridine-3-carboxamide] | 1 to 20 (≈ 0.506 to 10.1 µg/mL) | < 1 | 148 to 149
2 | CCc1nc2cc(N3CCN(Cc4ccc(F)cc4)CC3)ccn2c1C(=O)NCc1ccc(N2CCOCC2)cc1 [Compound 331, 2-Ethyl-7-(4-(4-fluorobenzyl)piperazin-1-yl)-N-(4-morpholinobenzyl)imidazo[1,2-a]pyridine-3-carboxamide] | > 20 | > 20 | 212.5
3 | CCc1nc2cc(C)ccn2c1C(=O)NCc1ccc2ccccc2c1 [Compound 69, 2-Ethyl-7-methyl-N-(naphthalen-2-ylmethyl)imidazo[1,2-a]pyridine-3-carboxamide] | < 1 | 1 to 20 (≈ 0.343 to 6.87 µg/mL) | 192
4 | CCc1nc2ccc(Cl)cn2c1CNc1ccc(N2CCN(c3ccc(F)cc3)CC2)cc1 [Compound 241, N-((6-Chloro-2-ethylimidazo[1,2-a]pyridin-3-yl)methyl)-4-(4-(4-fluorophenyl)piperazin-1-yl)aniline] | > 20 | > 20 | 191 to 192
5 | CCc1nc2ccc(Cl)cn2c1C(=O)NCc1ccc(N2CCC(COc3ccc(F)cc3)CC2)cc1 [Compound 296, 6-Chloro-2-ethyl-N-(4-(4-((4-fluorophenoxy)methyl)piperidin-1-yl)benzyl)imidazo[1,2-a]pyridine-3-carboxamide] | < 1 | < 1 | 171
6 | CCc1nc2cnccn2c1C(=O)NCc1ccc(OC(F)(F)F)cc1 [Compound 155, 2-Ethyl-N-(4-(trifluoromethoxy)benzyl)imidazo[1,2-a]pyrazine-3-carboxamide] | > 20 | > 20 | 176 to 177
7 | CCc1nc2ccc(Cl)cn2c1C(=O)NCc1ccc(Oc2ccc(F)cc2)cc1 [Compound 187, 6-Chloro-2-ethyl-N-(4-(4-fluorophenoxy)benzyl)imidazo[1,2-a]pyridine-3-carboxamide] | < 1 | < 1 | 168 to 169
8 | CCc1nc2ccccn2c1C(=O)NCc1ccc(N2CCC(COc3ccc(F)cc3)CC2)cc1 [Compound 295, 2-Ethyl-N-(4-(4-((4-fluorophenoxy)methyl)piperidin-1-yl)benzyl)imidazo[1,2-a]pyridine-3-carboxamide] | < 1 | < 1 | 144.2
9 | CCc1nc2ccc(Cl)cn2c1C(=O)NC1CCN(Cc2ccc(OC(F)(F)F)cc2)CC1 [Compound 229, 6-Chloro-2-ethyl-N-(1-(4-(trifluoromethoxy)benzyl)piperidin-4-yl)imidazo[1,2-a]pyridine-3-carboxamide] | > 20 | > 20 | 157 to 158
10 | CCc1nc2cc(Cl)ccn2c1C(=O)NCc1ccc(N2CCC(c3ccc(F)cc3)CC2)cc1 [Compound 287, 7-Chloro-2-ethyl-N-(4-(4-(4-fluorophenyl)piperidin-1-yl)benzyl)imidazo[1,2-a]pyridine-3-carboxamide] | < 1 | < 1 | 182.7
11 | CCc1nc2ccccn2c1C(=O)NCc1ccc(/N=C/c2ccc(OC(F)(F)F)cc2)cc1 [Compound 261] | > 20 | > 20 | 194
12 | CCc1nc2cc(Cl)ccn2c1C(=O)NCc1ccc(Oc2ccc(F)cc2)nc1 [Compound 193, 7-Chloro-2-ethyl-N-((6-(4-fluorophenoxy)pyridin-3-yl)methyl)imidazo[1,2-a]pyridine-3-carboxamide] | < 1 | < 1 | 167 to 167.6
13 | CCc1nc2cc(Cl)ccn2c1C(=O)NCc1ccc(N2CCN(Cc3ccc(F)cc3)CC2)cc1 [Compound 172, 7-Chloro-2-ethyl-N-(4-(4-(4-fluorobenzyl)piperazin-1-yl)benzyl)imidazo[1,2-a]pyridine-3-carboxamide] | < 1 | < 1 | 141 to 142
14 | CCc1nc2c(F)cccn2c1C(=O)NCc1ccc(N2CCN(c3ccc(F)cc3)CC2)cc1 [Compound 310, 2-Ethyl-8-fluoro-N-(4-(4-(4-fluorophenyl)piperazin-1-yl)benzyl)imidazo[1,2-a]pyridine-3-carboxamide] | < 1 | < 1 | 204.1
15 | CCc1nc2cc(Cl)ccn2c1C(=O)NCc1ccc(Oc2ccc(OC(F)(F)F)cc2)cc1 [Compound 186, 7-Chloro-2-ethyl-N-(4-(4-(trifluoromethoxy)phenoxy)benzyl)imidazo[1,2-a]pyridine-3-carboxamide] | < 1 | < 1 | 141 to 142
16 | CCc1nc2cc(N3CCN(C)CC3)ccn2c1C(=O)NCc1ccc(N2CCOCC2)cc1 [Compound 328, 2-Ethyl-7-(4-methylpiperazin-1-yl)-N-(4-morpholinobenzyl)imidazo[1,2-a]pyridine-3-carboxamide] | > 20 | > 20 | 204.8
17 | CCc1nc2cc(Cl)ccn2c1C(=O)NCc1ccc(N2CCC(COc3ccc(F)cc3)CC2)cc1 [Compound 297, 7-Chloro-2-ethyl-N-(4-(4-((4-fluorophenoxy)methyl)piperidin-1-yl)benzyl)imidazo[1,2-a]pyridine-3-carboxamide] | < 1 | < 1 | 186.5
18 | CCc1nc2ccc(Cl)cn2c1C(=O)NCc1ccc(C(F)(F)F)cc1 [Compound 147, 6-Chloro-2-ethyl-N-(4-(trifluoromethyl)benzyl)imidazo[1,2-a]pyridine-3-carboxamide] | < 1 | < 1 | 179 to 180
19 | CCc1nc2ccc(Cl)cn2c1C(=O)NCc1ccc(N2CCC(COC)CC2)cc1 [Compound 281, 6-Chloro-2-ethyl-N-(4-(4-(methoxymethyl)piperidin-1-yl)benzyl)imidazo[1,2-a]pyridine-3-carboxamide] | < 1 | < 1 | 162.1
20 | CCc1nc2ccc(Br)cn2c1C(=O)NCc1ccc(N2CCN(c3ccc(F)cc3)CC2)cc1 [Compound 307, 6-Bromo-2-ethyl-N-(4-(4-(4-fluorophenyl)piperazin-1-yl)benzyl)imidazo[1,2-a]pyridine-3-carboxamide] | < 1 | < 1 | 218.1
21 | CCc1nc2cc(Cl)ccn2c1C(=O)NCc1ccc(N2CCN(c3ccc(F)cc3)CC2)cc1 [Compound 176, 7-Chloro-2-ethyl-N-(4-(4-(4-fluorophenyl)piperazin-1-yl)benzyl)imidazo[1,2-a]pyridine-3-carboxamide] | < 1 | < 1 | 212 to 213
22 | CCc1nc2cc(C)ccn2c1C(=O)NCc1ccc(N2CCN(c3ccc(F)cc3)CC2)cc1 [Compound 309, 2-Ethyl-N-(4-(4-(4-fluorophenyl)piperazin-1-yl)benzyl)-7-methylimidazo[1,2-a]pyridine-3-carboxamide] | < 1 | < 1 | 203.7
23 | CCc1nc2cc(Cl)ccn2c1C(=O)NCc1ccc(N2CCN(Cc3ccc(OC(F)(F)F)cc3)CC2)cc1 [Compound 174, 7-Chloro-2-ethyl-N-(4-(4-(4-(trifluoromethoxy)benzyl)piperazin-1-yl)benzyl)imidazo[1,2-a]pyridine-3-carboxamide] | < 1 | < 1 | 137.1 to 137.6
24 | CCc1nc2cc(Cl)ccn2c1C(=O)NCc1ccc(Oc2ccc(Cl)cc2)cc1 [Compound 191, 7-Chloro-N-(4-(4-chlorophenoxy)benzyl)-2-ethylimidazo[1,2-a]pyridine-3-carboxamide] | < 1 | < 1 | 167.1 to 167.9
25 | CCc1nc2ccc(Cl)cn2c1C(=O)NCc1ccc(N2CC(C)OC(C)C2)cc1 (stereo not drawn) [Compound 209, 6-Chloro-N-(4-(2,6-dimethylmorpholino)benzyl)-2-ethylimidazo[1,2-a]pyridine-3-carboxamide] | < 1 | < 1 | 176 to 177
26 | CCc1nc2cc(Cl)ccn2c1C(=O)NCc1ccc(N2CC(C)OC(C)C2)cc1 (stereo not drawn) [Compound 210, 7-Chloro-N-(4-(2,6-dimethylmorpholino)benzyl)-2-ethylimidazo[1,2-a]pyridine-3-carboxamide] | < 1 | 1 to 20 (≈ 0.427 to 8.54 µg/mL) | 165 to 166
27 | CCc1nc2ccc(Cl)cn2c1C(=O)NCCc1ccc(OC)cc1 [Compound 157, 6-Chloro-2-ethyl-N-(4-methoxyphenethyl)imidazo[1,2-a]pyridine-3-carboxamide] | < 1 | < 1 | 129 to 130
28 | CCc1nc2ccc(F)cn2c1C(=O)NCc1ccc(N2CCN(c3ccc(F)cc3)CC2)cc1 [Compound 306, 2-Ethyl-6-fluoro-N-(4-(4-(4-fluorophenyl)piperazin-1-yl)benzyl)imidazo[1,2-a]pyridine-3-carboxamide] | < 1 | < 1 | 200.9
29 | CCc1nc2ccc(Cl)cn2c1CNc1ccc(Oc2ccc(F)cc2)cc1 [Compound 242, N-((6-Chloro-2-ethylimidazo[1,2-a]pyridin-3-yl)methyl)-4-(4-fluorophenoxy)aniline] | > 20 | > 20 | 148.6 to 148.8

Source: US8865734B2 (priority 2010, dated 2014)
